Reference: ChEMBL document CHEMBL2163248, “Classification of inhibitors of hepatic organic anion transporting polypeptides (OATPs): influence of protein expression on drug-drug interactions” (J Med Chem, 2012)
Where a SMILES comes first, the peptide text is derived from it.

Experiments:
[1] = biological target: T1, Solute carrier organic anion transporter family member 1B1 (Homo sapiens, UniProt Q9Y6L6); assay: Inhibition of human liver OATP1B1 expressed in HEK293 Flp-In cells assessed as reduction in E17-betaG uptake at 20 uM by scintillation counting; details: hek293, 20 µM
T1 sequence (Q9Y6L6 whole entry): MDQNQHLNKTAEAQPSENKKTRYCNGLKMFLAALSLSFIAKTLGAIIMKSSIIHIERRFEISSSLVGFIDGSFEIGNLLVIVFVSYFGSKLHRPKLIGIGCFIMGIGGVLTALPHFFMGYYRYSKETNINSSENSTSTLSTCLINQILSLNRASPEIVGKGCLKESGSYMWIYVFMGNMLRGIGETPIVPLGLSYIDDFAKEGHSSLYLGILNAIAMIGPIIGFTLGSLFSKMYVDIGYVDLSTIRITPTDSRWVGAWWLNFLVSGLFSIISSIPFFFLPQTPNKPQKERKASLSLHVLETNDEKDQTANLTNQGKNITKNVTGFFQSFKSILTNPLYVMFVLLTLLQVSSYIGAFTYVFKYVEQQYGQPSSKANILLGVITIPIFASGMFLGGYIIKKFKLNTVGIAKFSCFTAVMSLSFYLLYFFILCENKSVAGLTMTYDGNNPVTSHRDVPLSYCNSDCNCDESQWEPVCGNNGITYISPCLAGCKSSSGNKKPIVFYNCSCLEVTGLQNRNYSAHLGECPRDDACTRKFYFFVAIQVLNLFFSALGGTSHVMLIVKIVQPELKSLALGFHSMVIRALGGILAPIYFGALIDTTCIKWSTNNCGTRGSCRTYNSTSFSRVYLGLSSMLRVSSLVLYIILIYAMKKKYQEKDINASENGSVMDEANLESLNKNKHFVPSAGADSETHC

[2] = biological target: T2, Solute carrier organic anion transporter family member 1B3 (Homo sapiens, UniProt Q9NPD5); assay: Inhibition of human liver OATP1B3 expressed in HEK293 Flp-In cells assessed as reduction in [3H]E17-betaG uptake at 20 uM incubated for 5 mins by scintillation counting; details: hek293, 5 min
T2 sequence (Q9NPD5 whole entry): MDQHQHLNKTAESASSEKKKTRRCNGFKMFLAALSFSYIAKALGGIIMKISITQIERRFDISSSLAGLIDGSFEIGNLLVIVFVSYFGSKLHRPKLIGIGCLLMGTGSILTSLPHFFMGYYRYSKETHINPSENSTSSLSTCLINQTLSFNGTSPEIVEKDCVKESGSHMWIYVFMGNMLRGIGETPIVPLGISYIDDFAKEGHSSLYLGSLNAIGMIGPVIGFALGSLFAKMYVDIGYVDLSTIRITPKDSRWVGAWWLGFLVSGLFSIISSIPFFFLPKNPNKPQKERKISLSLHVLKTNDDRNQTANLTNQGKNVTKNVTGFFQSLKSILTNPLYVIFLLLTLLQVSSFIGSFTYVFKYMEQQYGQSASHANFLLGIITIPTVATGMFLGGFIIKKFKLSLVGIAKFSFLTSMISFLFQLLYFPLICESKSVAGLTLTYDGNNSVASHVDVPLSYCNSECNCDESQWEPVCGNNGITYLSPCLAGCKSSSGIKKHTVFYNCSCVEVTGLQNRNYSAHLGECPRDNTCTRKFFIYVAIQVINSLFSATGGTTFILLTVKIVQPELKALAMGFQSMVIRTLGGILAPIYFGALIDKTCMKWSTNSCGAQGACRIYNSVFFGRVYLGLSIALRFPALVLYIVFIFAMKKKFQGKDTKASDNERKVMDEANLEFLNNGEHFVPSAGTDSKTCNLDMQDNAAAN

[3] = biological target: T3, Solute carrier organic anion transporter family member 2B1 (Homo sapiens, UniProt O94956); assay: Inhibition of human liver OATP2B1 expressed in HEK293 Flp-In cells assessed as reduction in [3H]E3S uptake at 20 uM incubated for 5 mins by scintillation counting; details: hek293, 5 min
T3 sequence (O94956 whole entry): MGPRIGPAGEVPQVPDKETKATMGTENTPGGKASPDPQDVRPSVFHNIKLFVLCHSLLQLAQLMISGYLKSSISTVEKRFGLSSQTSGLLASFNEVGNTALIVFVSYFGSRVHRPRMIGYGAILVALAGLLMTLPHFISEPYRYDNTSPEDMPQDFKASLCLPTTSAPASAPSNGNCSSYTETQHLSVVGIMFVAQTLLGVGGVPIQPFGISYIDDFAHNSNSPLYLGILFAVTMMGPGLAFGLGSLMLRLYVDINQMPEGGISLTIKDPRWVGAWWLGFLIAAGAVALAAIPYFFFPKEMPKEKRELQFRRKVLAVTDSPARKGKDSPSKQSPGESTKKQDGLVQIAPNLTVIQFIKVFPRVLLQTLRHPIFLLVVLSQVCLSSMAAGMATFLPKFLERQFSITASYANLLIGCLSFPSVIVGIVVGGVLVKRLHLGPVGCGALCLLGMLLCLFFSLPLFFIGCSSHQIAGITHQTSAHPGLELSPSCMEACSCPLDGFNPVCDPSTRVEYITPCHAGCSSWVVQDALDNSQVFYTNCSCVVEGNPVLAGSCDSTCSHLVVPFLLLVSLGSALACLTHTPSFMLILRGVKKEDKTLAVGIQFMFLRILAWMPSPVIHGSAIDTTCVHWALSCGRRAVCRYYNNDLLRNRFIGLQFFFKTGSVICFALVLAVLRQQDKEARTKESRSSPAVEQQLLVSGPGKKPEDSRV

Row | SMILES | INH [1] | INH [2] | INH [3]
1 | CC[C@H](C)C(=O)O[C@H]1C[C@@H](C)C=C2C=C[C@H](C)[C@H](CC[C@@H]3C[C@@H](O)CC(=O)O3)[C@H]21 [LOVASTATIN] | 66.5% | 21.3% | -17.9%
2 | CC[C@H]1OC(=O)[C@H](C)[C@@H](O[C@H]2C[C@@](C)(OC)[C@@H](O)[C@H](C)O2)[C@H](C)[C@@H](O[C@@H]2O[C@H](C)C[C@H](N(C)C)[C@H]2O)[C@](C)(O)C[C@@H](C)C(=O)[C@H](C)[C@@H](O)[C@]1(C)O [ERYTHROMYCIN] | 58.8% | 45.8% | -19%
3 | CC(C)c1nc(N(C)S(C)(=O)=O)nc(-c2ccc(F)cc2)c1/C=C/[C@@H](O)C[C@@H](O)CC(=O)O [ROSUVASTATIN] | 71.4% | 55.4% | 51.2%
4 | COc1ccc([C@@H]2Sc3ccccc3N(CCN(C)C)C(=O)[C@@H]2OC(C)=O)cc1 [DILTIAZEM] | 3.2% | 4.1% | -9.1%
5 | C[C@]12CC[C@@H]3c4ccc(OS(=O)(=O)O)cc4CC[C@H]3[C@@H]1CCC2=O [ESTRONE SULFURIC ACID] | 98.1% | 10.1% | 20.8%
6 | CC(C)NCC(O)COc1cccc2[nH]ccc12 (stereo not given) [PINDOLOL] | -24.7% | 24.5% | -10.8%
7 | CC#C[C@]1(O)CC[C@H]2[C@@H]3CCC4=CC(=O)CCC4=C3[C@@H](c3ccc(N(C)C)cc3)C[C@@]21C [MIFEPRISTONE] | 81.2% | 80.3% | 70.7%
8 | Cc1ncc2n1-c1ccc(Cl)cc1C(c1ccccc1F)=NC2 [MIDAZOLAM] | 32.9% | 6.7% | 22.7%
9 | CC(NCCC(c1ccccc1)c1ccccc1)c1ccccc1 (stereo not given) [FENDILINE] | 15% | 20.4% | -118.7%
10 | C[N+](C)(C)CC(O)CC(=O)[O-] (stereo not given) [CARNITINE] | 36.6% | -9.3% | 15.5%
11 | C[C@]12CC[C@@H]3c4ccc(O)cc4CC[C@H]3[C@@H]1CC[C@@H]2O [ESTRADIOL] | 102.8% | 39.3% | 47.4%
12 | Nc1nc2c(ncn2COCCO)c(=O)[nH]1 [ACYCLOVIR] | 2.3% | -2% | -15.2%
13 | Cc1cccc(C)c1NC(=O)CC12CCCN1CCC2 [PILSICAINIDE] | 11.2% | -16.8% | 10.8%
14 | O=C1CC2(CCCC2)CC(=O)N1CCCCN1CCN(c2ncccn2)CC1 [BUSPIRONE] | 33.3% | -5.6% | -13.9%
15 | C[C@]12C=CC(=O)C=C1CC[C@@H]1[C@@H]2[C@@H](O)C[C@@]2(C)[C@H]1CC[C@]2(O)C(=O)CO [PREDNISOLONE] | 2.3% | 9.6% | 27.6%
16 | CNC(=O)c1cccnc1 [NICOTINYL METHYLAMIDE] | 71.4% | -0.5% | 14.5%
17 | COc1cc2c(cc1OC)CN(CCc1ccc(NC(=O)c3cccc4c(=O)c5cccc(OC)c5[nH]c34)cc1)CC2 | 94.4% | 37.4% | 67.2%
18 | CN(C)C(=O)CCSC(SCCC(=O)O)c1cccc(/C=C/c2ccc3ccc(Cl)cc3n2)c1 (stereo not given) [MK-571] | 88.5% | 80.7% | 75.2%

Row | SMILES | INH [1] | INH [2] | INH [3]
19 | CO[C@H]1/C=C/O[C@@]2(C)Oc3c(C)c(O)c4c(O)c(c(/C=N/N5CCN(C)CC5)c(O)c4c3C2=O)NC(=O)/C(C)=C\C=C\[C@H](C)[C@H](O)[C@@H](C)[C@@H](O)[C@@H](C)[C@H](OC(C)=O)[C@@H]1C [RIFAMPIN] | 88.3% | 101.7% | 21.2%
20 | CC(NC(C)(C)C)C(=O)c1cccc(Cl)c1 (stereo not given) [BUPROPION] | 8.5% | 7.2% | 17%
21 | [H]/N=C(/N)N/C(=N/[H])NCCc1ccccc1 [PHENFORMIN] | 34.5% | -2.3% | 16.7%
22 | CN/C(=N/CCSCc1nc[nH]c1C)NC#N [CIMETIDINE] | 40.3% | 24.8% | -6.2%
23 | CC(C)C[C@H](NC(=O)[C@@H](O)[C@H](N)Cc1ccccc1)C(=O)O [UBENIMEX] | 10.9% | 31.8% | 20.7%
24 | O=c1c(O)c(-c2ccc(O)c(O)c2)oc2cc(O)cc(O)c12 [QUERCETIN] | 77% | 21.6% | 72.6%
25 | CCCCC(=O)N(Cc1ccc(-c2ccccc2-c2nnn[nH]2)cc1)[C@H](C(=O)O)C(C)C | 62.2% | 33.7% | 12.3%
26 | NCC(=O)N1CCC[C@H]1C(=O)O [GLYCYL PROLINE] (H-Gly-Pro-OH) | -8.4% | 9.6% | 24.1%
27 | CC(=O)[C@H]1CC[C@H]2[C@@H]3CCC4=CC(=O)CC[C@]4(C)[C@H]3CC[C@]12C [PROGESTERONE] | 63.9% | 33.4% | -362.6%
28 | O=C(O)c1cc(/N=N/c2ccc(S(=O)(=O)Nc3ccccn3)cc2)ccc1O [SULFASALAZINE] | 92.1% | 72.1% | 92.3%
29 | O=C1c2c(O)ccc(O)c2C(=O)c2c(NCCNCCO)ccc(NCCNCCO)c21 [MITOXANTRONE] | 27.2% | 67.9% | 48.3%
30 | CC(C)C(=O)Nc1ccc([N+](=O)[O-])c(C(F)(F)F)c1 [FLUTAMIDE] | 6.8% | 9% | 65.8%
31 | Cc1c(OCC(F)(F)F)ccnc1C[S+]([O-])c1nc2ccccc2[nH]1 (stereo not given) [LANSOPRAZOLE] | 31.4% | 23.3% | -75.7%
32 | CCc1oc2ccccc2c1C(=O)c1cc(Br)c(O)c(Br)c1 [BENZBROMARONE] | 86.6% | 19.5% | 76.3%
33 | O=c1c(-c2ccc(O)cc2)coc2cc(O)cc(O)c12 [GENISTEIN] | 84.9% | -5% | 67.9%
34 | COC(=O)C1=C(C)NC(C)=C(C(=O)OCCN(C)Cc2ccccc2)C1c1cccc([N+](=O)[O-])c1 (stereo not given) [NICARDIPINE] | 65.1% | 10.1% | 31.8%
35 | CN(C)C(=O)C(CCN1CCC(O)(c2ccc(Cl)cc2)CC1)(c1ccccc1)c1ccccc1 [LOPERAMIDE] | 32.5% | 32.4% | 19.6%
